Experimental data as given in the OligoGym collection.
“And” between values parts separate entries of the source, which are not always exact repeats. Identical values can stand only once. After the bases stand the sugars from the 5' end (letter, count) and the backbone: PS all phosphorothioate, else s phosphorothioate and o phosphodiester by linkage. Methylation of C is not given here. e = 2'-O-(2-methoxyethyl) (MOE); d = 2'-deoxy (DNA)

Biological target: DGAT2
Details: ASO

| Sequence | target mRNA inhibition (HepG2, 2.5 µM) | target mRNA inhibition (HepG2, 10 µM) | target mRNA inhibition (HepG2, 0.12 µM) [%] | target mRNA inhibition (HepG2, 20 µM) [%] |
| --- | --- | --- | --- | --- |
| AAAAACCACTGTTGCTGAGC (sugars e5 d10 e5, PS) | 62% | 92% |  |  |
| AAAATCCATGTCAGAGAGGC (sugars e5 d10 e5, PS) | 64% | 90% |  |  |
| AAACCACTGTTGCTGAGCTC (sugars e5 d10 e5, PS) | 71% and 58% | 84% and 73% |  |  |
| AAACTTAGGCATGCTTCCTC (sugars e5 d10 e5, PS) | 84% | 56% |  |  |
| AAAGATATAGTTCCTGGTGG (sugars e5 d10 e5, PS) |  |  | 54 |  |
| AAAGGAGTTTGTGTTTCCCA (sugars e5 d10 e5, PS) | 73% | 91% |  |  |
| AAATGGTAGCCCCTTGTTGC (sugars e5 d10 e5, PS) |  |  | 32 |  |
| AACACTCACAGCACTTTACC (sugars e5 d10 e5, PS) |  |  | 4 |  |
| AACCAACTCTCAGCTACTCC (sugars e5 d10 e5, PS) | 82% and 71% | 93% and 97% |  |  |
| AAGCCCTTGCGGTTCCGCAG (sugars e5 d10 e5, PS) |  |  | 67 |  |
| AAGCCTGGATGGTGGTTGCA (sugars e5 d10 e5, PS) | 82% and 66% | 91% and 82% |  |  |
| AAGGCACCCAGGCCCATGAT (sugars e5 d10 e5, PS) |  |  | 46 |  |
| AAGGCCAGGCCCCTTCTGAA (sugars e5 d10 e5, PS) |  |  | 32 |  |
| AATGCCAATGCCTAGGTCAC (sugars e5 d10 e5, PS) | 72% | 90% |  |  |
| ACAATGGGAATGGTATCGCA (sugars e5 d10 e5, PS) | 59% | 92% |  |  |
| ACACGCAGACCAGGACAGCT (sugars e5 d10 e5, PS) |  |  | 46 |  |
| ACAGCAGCAGTCTAATCCAT (sugars e5 d10 e5, PS) | 57% | 87% |  |  |
| ACAGCTGTGATGACTTCCCA (sugars e5 d10 e5, PS) | 88% | 77% |  |  |
| ACAGGACCCACTGGAGCACT (sugars e3 d14 e3, PS) |  |  | 61 |  |
| ACCAACTCTCAGCTACTCCC (sugars e5 d10 e5, PS) | 95% | 85% |  |  |
| ACCACTGTTGCTGAGCTCAT (sugars e5 d10 e5, PS) | 67% | 90% |  |  |

| Sequence | target mRNA inhibition (HepG2, 2.5 µM) | target mRNA inhibition (HepG2, 10 µM) | target mRNA inhibition (HepG2, 0.12 µM) [%] | target mRNA inhibition (HepG2, 20 µM) [%] |
| --- | --- | --- | --- | --- |
| ACCAGGGCCTCCATGTACAT (sugars e3 d14 e3, PS) | 27% and 24% | 63% and 50% | 84 | 26 |
| ACCAGGGCCTCCATGTACAT (sugars e5 d10 e5, PS) | 30% | 32% and 50% |  | 48 |
| ACCCACTGGAGCACTGAGAT (sugars e3 d14 e3, PS) |  |  | 59 |  |
| ACCCACTGGAGCACTGAGAT (sugars e5 d10 e5, PS) |  |  | 72 |  |
| ACTGGTCCTGCAGTTTCAGG (sugars e5 d10 e5, PS) |  |  | 55 |  |
| AGAAAAAGCAACCAAAGCAC (sugars e5 d10 e5, PS) | 19% | 82% |  |  |
| AGAAGAGCAAAGGCTTGCTT (sugars e5 d10 e5, PS) | 74% and 72% | 94% and 93% |  |  |
| AGAGAGACAATGAGTAAGGG (sugars e5 d10 e5, PS) | 68% | 79% |  |  |
| AGAGGCCCTGGACACTGGCC (sugars e5 d10 e5, PS) |  |  | 32 |  |
| AGCAATGCCAATGCCTAGGT (sugars e5 d10 e5, PS) | 82% | 93% |  |  |
| AGCATTGCCACTCCCATTCT (sugars e3 d14 e3, PS) |  |  | 67 |  |
| AGCATTGCCACTCCCATTCT (sugars e5 d10 e5, PS) |  |  | 74 |  |
| AGCCTGCCACAGGGCCCTTT (sugars e5 d10 e5, PS) |  |  | 37 |  |
| AGCCTGGACAAGTCCTGCCC (sugars e3 d14 e3, PS) | 35% and 53% | 84% | 82 | 59 |
| AGCTCAGAGACTCAGCCGCA (sugars e3 d14 e3, PS) |  |  | 77 |  |
| AGCTCTCAAGTCTTCCTCCT (sugars e5 d10 e5, PS) | 62% and 76% | 89% and 92% |  |  |
| AGCTGTGATGACTTCCCAGG (sugars e5 d10 e5, PS) | 52% | 91% |  |  |
| AGGACCCCGGAGTAGGCGGC (sugars e3 d14 e3, PS) |  |  | 76 |  |
| AGGAGTTCTCGAATATCCCT (sugars e5 d10 e5, PS) | 55% and 50% | 87% |  |  |
| AGGAGTTTGTGTTTCCCATT (sugars e5 d10 e5, PS) |  |  | 39 |  |
